Structures are written as SMILES. Several values for one entry are separate records, joined by “and”; a condition that tells them apart may be missing. Equal values may be shown once.

Holding throughout (type): physicochemical
A short description of data set [1]: Test 1: storage stability of lansoprazole crystals, content by HPLC. As to conditions: for Residual ratio after stored for 6 months at 40° C.: [(Content after stored for 6 months at 40° C.)/(Initial Content)]×100; for Initial Content / Content after stored for 6 months at 40° C.: content of lansoprazole in crystals, wt %, HPLC; for Initial Content: before storage. The text has this:
The stability of the crystals of the solvate of lansoprazole (hereinafter, referred to as lansoprazole (1)) obtained by vacuum drying the wet crystals of the solvate of ethanol-water of lansoprazole obtained according to the method in EXAMPLE 2, was compared to the stability of the white crystals of lansoprazole (hereinafter, referred to as lansoprazole (2)) obtained according to the method in EXAMPLE 3.
Herein, the “content” in Table 1 refers to the content of lansoprazole in lansoprazole crystals expressed in wt %, and was measured by HPLC technique (analyzed under each of following conditions: for (1), Column: NOVA PAK, C18, 3.9×150 mm, Temperature: constant temperature of around 25° C., Mobile phase: solution prepared by adjusting the pH of methanol:water:triethylamine (weight ratio=60:40:1) with phosphoric acid to 7.0, Flow rate: 0.5 ml/min, Detector: UV 285 nm, and for (2), Column: CAPCELL PAC, C18, SG120, 4.6×250 mm, Temperature: constant temperature of around 25° C., Mobile phase: solution prepared by adjusting the pH of acetonitrile:water:triethylamine (weight ratio=40:60:1) with phosphoric acid to 7.0, Flow rate: 1 ml/min, Detector: UV 285 nm). The “residual ratio after stored for 6 months at 40° C.” was calculated by [(Content after stored for 6 months at 40° C.)/(Initial Content)]×100 (%).

A short description of data set [2]: Stability of crystals obtained in Example 2 (statement only).
Data set [3] can be described thus: Test 2: crystal stability by coloration, absorbance (390 nm) of crystals dissolved in dimethylformamide. As to conditions: for Absorbance of solution of crystals just after preparation / Absorbance of solution of crystals after stored at 60° C. for 15 days: 1 g crystals in 10 mL dimethylformamide; for Change in Absorbance: after 60° C. for 15 days minus just after preparation. As for the experimental part:
In the method according to EXAMPLE 3, the amount of ethanol added to the mixed solution in which the wet crystals of the solvate of ethanol-water of lansoprazole are suspended was changed, and the stability of thus obtained crystals was compared.
The crystals obtained from each of mixed solution systems shown in Table 2 below were each dissolved in dimethylformamide just after the preparation and after stored at 60° C. for 15 days, and the absorbance (390 nm) of thus obtained solutions of crystals was measured. The degree of coloration was compared as an indicator of the crystal stability.
The absorbance of the solution prepared by dissolving 1 g of crystals into 10 mL of dimethylformamide was measured with the use of a spectral photometer (Jasco No. 0214332).
In addition, the pH of each mixed solution in which crystals are suspended was adjusted to about 9 with an aqueous ammonia solution.

In the case of `Cc1c(OCC(F)(F)F)ccnc1C[S+]([O-])c1nc2ccccc2[nH]1` (racemic) [lansoprazole (1), (+/−)-2-(((3-methyl-4-(2,2,2-trifluoroethoxy)-2-pyridyl)methyl)sulfinyl)benzimidazole], in data set [1], the “Residual ratio after stored for 6 months at 40° C.” value (“Residual ratio after stored” below) was 91.3% and 84.7% and 86.8%; the “Initial Content” value was 99.2% and 99.3% and 99.1%. Moreover, the “Content after stored for 6 months at 40° C.” value in data set [1] (6 months at 40° C.) is 90.6% and 84.1% and 86.0%.
Take `Cc1c(OCC(F)(F)F)ccnc1C[S+]([O-])c1nc2ccccc2[nH]1` (racemic) [lansoprazole I type crystal, (+/−)-2-(((3-methyl-4-(2,2,2-trifluoroethoxy)-2-pyridyl)methyl)sulfinyl)benzimidazole]: the “stability of obtained crystals” value in data set [2] is listed as “stable”.
Take `Cc1c(OCC(F)(F)F)ccnc1C[S+]([O-])c1nc2ccccc2[nH]1` (racemic) [About 160:1, (+/−)-2-(((3-methyl-4-(2,2,2-trifluoroethoxy)-2-pyridyl)methyl)sulfinyl)benzimidazole]: in data set [3], the “Absorbance of solution of crystals just after preparation” value was determined as 0.054, the “Absorbance of solution of crystals after stored at 60° C. for 15 days” value came out at 1.135 and the “Change in Absorbance” value is recorded as 1.081.
For `Cc1c(OCC(F)(F)F)ccnc1C[S+]([O-])c1nc2ccccc2[nH]1` (racemic) [About 40:1, (+/−)-2-(((3-methyl-4-(2,2,2-trifluoroethoxy)-2-pyridyl)methyl)sulfinyl)benzimidazole] the same measures were 0.056, 0.964 and 0.908.
Take `Cc1c(OCC(F)(F)F)ccnc1C[S+]([O-])c1nc2ccccc2[nH]1` (racemic) [Ethanol non-added, (+/−)-2-(((3-methyl-4-(2,2,2-trifluoroethoxy)-2-pyridyl)methyl)sulfinyl)benzimidazole]: in data set [3], the “Absorbance of solution of crystals just after preparation” value is on record as 0.046, the “Absorbance of solution of crystals after stored at 60° C. for 15 days” value worked out at 1.703 and the “Change in Absorbance” value amounted to 1.657.
For `Cc1c(OCC(F)(F)F)ccnc1C[S+]([O-])c1nc2ccccc2[nH]1` (racemic) [lansoprazole (2), (+/−)-2-(((3-methyl-4-(2,2,2-trifluoroethoxy)-2-pyridyl)methyl)sulfinyl)benzimidazole], in data set [1] (6 months at 40° C.), the “stability of crystal compared to lansoprazole (1)” value is “more excellent stability”; the “Content after stored for 6 months at 40° C.” value is 99.6% and 99.8%. In data set [1], the “Residual ratio after stored” value is recorded as around 100%; the “Initial Content” value was 99.7% and 99.8%. For the same molecule, the “Residual ratio after stored” value in data set [1] (listed as (2)) was 99.9% and 100.0%.

These data come from patent US20080262235A1, “Method and Apparatus for Producing Oxidized Compound” (priority 2005, published 2008).
